Source: patent US5089471A, “Peptidyl beta-aminoacyl aminodiol carbamates as anti-hypertensive agents” (G. D. Searle & Co., priority 1987, dated 1992)
Each block holds one compound with its values, some of them ahead of it. Square brackets hold non-standard residues; d marks the D form. Peptide text beside a SMILES is read from it. * marks the point of attachment. Sta = CC(C)C[C@H](N)[C@@H](O)CC(=O)O; Isovaleryl = CC(C)CC(=O)*

Key:
human renin = target: T1, human renin (Homo sapiens, UniProt P00797); experiment: in vitro human renin inhibition test (angiotensin I determined by radioimmunoassay); type: biochemical; settings: for relative activity of epimers as human renin inhibitor (in words): epimer of Example 9 versus epimer of Example 10
T1 construct: purchased National Institute for Biological Standards, London
T1 sequence (P00797 67-406): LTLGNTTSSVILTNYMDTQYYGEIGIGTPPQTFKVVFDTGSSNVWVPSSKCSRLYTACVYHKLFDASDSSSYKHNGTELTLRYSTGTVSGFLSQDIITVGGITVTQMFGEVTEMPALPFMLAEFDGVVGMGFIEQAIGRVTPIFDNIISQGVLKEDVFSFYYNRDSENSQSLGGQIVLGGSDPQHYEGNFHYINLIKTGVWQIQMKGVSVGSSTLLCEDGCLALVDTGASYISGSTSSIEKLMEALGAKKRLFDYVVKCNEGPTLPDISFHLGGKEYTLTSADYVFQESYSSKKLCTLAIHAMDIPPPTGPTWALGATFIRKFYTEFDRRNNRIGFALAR
Description: Compounds of Formula I were evaluated as inhibitors of human renin in an in vitro assay, as follows: This human renin inhibition test has been previously described in detail [Papaioannou, et al., Clinical and Experimental Hypertension, A7(9), 1243-1257 (1985)]. Human renin was obtained from the National Institute for Biological Standards, London. In a total volume of 0.25 mL 100 mM Tris-acetate buffer at pH 7.4, 25×10^-6 Goldblatt units of renin, 0.05 mL of plasma from human volunteers taking oral contraceptives, 6.0 mM sodium EDTA, 2.4 mM phenylmethyl sulfonyl fluoride, 1.5 mM 8-hydroxyquinoline, 0.4 mg/mL BSA, and 0.024 mg/mL neomycin sulfate were incubated for two hours at 37° C. in the presence or absence of renin inhibitors. The produced angiotensin I was determined by radioimmunoassay (New England Nuclear kit). Compounds of Formula I to be assayed were solubilized in either ethyl alcohol or DMSO and diluted with 100 mM Tris-acetate buffer at pH 7.4 to the appropriate concentration. The final concentration of organic solvent in the reaction mixture was less than 1%. Control incubations at 37° C. were used to correct for effects of organic solvent on renin activity.

hog renin = settings: after the injection of hog renin into nephrectomized rats; Gross et al, Science, 175, 656 (1971); cited from earlier work
cathepsin D = settings: Umezawa et al, J. Antibiot. 23:259-262 (1970); cited from earlier work
acid proteases = settings: cited from earlier work
pepsin = settings: Umezawa et al, J. Antibiot. 23:259-262 (1970); cited from earlier work
renin = settings: Umezawa et al, J. Antibiot. 23:259-262 (1970); cited from earlier work
[1] = in vitro, pH 7.4, 37° C., two hours, human plasma

- inhibiting renin (in words) (human renin; in vitro): capable of inhibiting renin in vitro
- IC50 (human renin; [1]): 0.28 µM
Structure (SMILES): CC(C)C[C@H](O)[C@H](O)[C@H](CC1CCCCC1)NC(=O)C(C)CNC(=O)[C@H](Cc1ccccc1)OC(=O)N1CCOCC1 (stereo partly drawn) [Example 8, O-(N-morpholinocarbonyl)-3-L-phenyllactyl-D,L-α-methyl-β-alaninamide of (2S, 3R, 4S)-2-amino-1-cyclohexyl-3,4-dihydroxy-6-methylheptane]

- inhibition at 1 µM (human renin; @ 10^-6 M, in vitro, pH 7.4, 37° C., two hours, human plasma): 8%
- relative activity of epimers as human renin inhibitor (in words) (human renin): less active epimer
Structure (SMILES): CC(C)C[C@H](O)[C@H](O)[C@H](CC1CCCCC1)NC(=O)[C@@H](C)CNC(=O)[C@H](Cc1ccccc1)OC(=O)N1CCOCC1 [Example 10, O-(N-morpholinocarbonyl)-3-L-phenyllactyl-α-(S)-methyl-β-alaninamide of (2S, 3R, 4S)-2-amino-1-cyclohexyl-3,4-dihydroxy-6-methylheptane]

- IC50 (human renin; [1]): 0.21 µM
Structure (SMILES): CC(C)C[C@H](O)[C@H](O)[C@H](CC1CCCCC1)NC(=O)[C@H](C)CNC(=O)[C@H](Cc1ccccc1)OC(=O)N1CCOCC1 [Example 9, O-(N-morpholinocarbonyl)-3-L-phenyllactyl-α-(R)-methyl-β-alaninamide of (2 S, 3R, 4S)-2-amino-1-cyclohexyl-3,4-dihydroxy-6-methylheptane]
- relative activity of epimers as human renin inhibitor (in words) (human renin): much more active as a human renin inhibitor than the other epimer of Example 10

Structure (SMILES): CC(C)CC(=O)N[C@H](C(=O)N[C@H](C(=O)N[C@@H](CC(C)C)[C@@H](O)CC(=O)N[C@@H](C)C(=O)N[C@@H](CC(C)C)[C@@H](O)CC(=O)O)C(C)C)C(C)C [pepstatin] (Isovaleryl-VV[Sta]A[Sta]-OH)
- reduction of blood pressure (hog renin): reduce blood pressure in vivo
- inhibition of cathepsin D (in words) (cathepsin D): inhibitor of aspartyl proteases such as pepsin, cathepsin D
- inhibition of acid proteases in addition to renin (in words) (acid proteases): inhibiting acid proteases in addition to renin
- inhibition of pepsin (in words) (pepsin): inhibitor of aspartyl proteases such as pepsin
- inhibition of renin (in words) (renin): inhibitor of aspartyl proteases such as pepsin, cathepsin D and renin
